“And” between values parts separate entries of the source, which are not always exact repeats. Identical values can stand only once.
Columns and labels:
[1] = system: human embryonic stem cells (H9 or H1 lines); test: Plate reader (MTS) proliferation assay; assay type: cell-based; details: for Average: average of replicate raw data; for activity at 10 µM: Homo sapiens, Embryonic stem cell, 96 h; for activity at 10 µM / % Control Value (proliferation): 10 μM test compound with 100 ng/ml activin A on days 1-2, MTS OD490 on day 4, vs Activin A/Wnt3a positive control, strong and moderate hits; for Raw Data: replicate wells, plate reader proliferation screen of GSK-3B inhibitors
Method: Maintenance of human embryonic stem cells (H9 or H1 lines) was conducted as described in Example 1. Colonies of cells were maintained in an undifferentiated, pluripotent state with passage on average every four days. Passage was performed by exposing cell cultures to a solution of collagenase (1 mg/ml; Sigma-Aldrich) for 10 to 30 minutes at 37° C. followed by gentle scraping with a pipette tip to recover cell clusters. Clusters were allowed to sediment and washed to remove residual collagenase. Cell clusters were split at a ratio of 1:3 monolayer area for routine culture or a 1:1 ratio for immediate assay. The human embryonis stem cell lines used for these examples were maintained at passage numbers less than 50 and routinely evaluated for normal karyotypic phenotype as well as absence of mycoplasm contamination.
Cell clusters used in assay were evenly resuspended in normal culture medium and plated into MATRIGEL-coated 96-well Packard VIEWPLATES (PerkinElmer) in volumes of 100 μl/well. MEF conditioned medium supplemented with 8 ng/ml bFGF) was used for initial plating and recovery. Daily feeding was conducted by aspirating spent culture medium from each well and replacing with an equal volume of fresh medium. Plates were maintained at 37° C. in a humidified box, 5% CO2 throughout the duration of assay.
Primary screening assays were initiated by aspirating culture medium from each well followed by three washes in PBS to remove residual growth factors and serum. Test volumes of 80-100 μl per well were added back containing DMEM:F12 base medium (Invitrogen) supplemented with 0.5% FCS (HyClone) and 100 ng/ml activin A (R&D Biosystems) and 10 μM test compound. Positive control wells contained the same medium substituting 10-20 ng/ml Wnt3a (R&D Biosystems). Negative control wells contained base medium with 0.5% FCS without activin A or Wnt3a. Screening compounds were tested in triplicate. Wells were aspirated and fed again with identical solutions on day 2 of the assay. On days 3 and 4, all assay wells were aspirated and converted to DMEM:F 12 supplemented with 2% FCS and 100 ng/ml activin A with the exception of negative control wells which were maintained in DMEM:F12 base medium with 2% FCS.
On day 4 of assay, 15-20 μl of MTS (Promega) was added to each well and plates were incubated at 37° C. for 1.5 to 4 hours. Densitometric readings at OD490 were determined using a Molecular Devices spectrophotometer plate reader. Average readings for replicate sets were calculated along with standard deviation and coefficient of variation. Experimental wells were compared to the Activin A/Wnt3a positive control to calculate a percent control value as a measure of proliferation.
Strong hits are defined as greater than or equal to 120% of control values; moderate hits are defined as falling within the interval of 60-120% of control values. A significant number of compounds induce a proliferative response in this assay.

[2] = system: cells expressing pluripotency markers derived from human embryonic stem cells; test: MTS viability (toxicity) assay of cells expressing pluripotency markers; assay type: cell-based; parameters: Raw data (duplicate), first replicate / Average: unit not given here; details: for viability at 10 µM: Homo sapiens, Embryonic stem cell; for viability at 10 µM / % Control: viability of cells expressing pluripotency markers, relative to control; for Raw data (duplicate), first replicate / Raw data (duplicate), second replicate: MTS viability assay raw reading; for Raw data (duplicate), first replicate: replicate 1; for Raw data (duplicate), second replicate: replicate 2; for Average: average of duplicate MTS raw readings
Method: Derivation and maintenance of cells expressing pluripotency makers was conducted as has been described in Example 2. Cells were grown in DMEM:F12 supplemented with 2% FCS (Invitrogen), 100 ng/ml Activin A, 20 ng/ml Wnt-3a, and 50 ng/ml IGF (R&D Biosystems). Cells were seeded at a density of 10,000 cells/cm^2 on Falcon polystyrene flasks and grown in monolayer culture at 37° C., 5% CO2, low oxygen. After reaching 60-70% confluence, cells were passed by washing the monolayer with PBS and incubating with TrypLE (Invitrogen) for 3-5 minutes to allow detachment and single cell dispersal.
Screening was conducted using test compounds from a proprietary library of small molecules selected for their ability to inhibit GSK-3B enzyme activity. Compounds from this library were made available as 1 mM stocks, in a 96-well plate format in 50 mM HEPES, 30% DMSO. For assay, cells expressing pluripotency markers were washed, counted, and plated in normal culture medium at a seeding density of 20,000 cells per well in 96-well clear-bottom, dark-well plates (Costar). This seeding density was previously determined to yield optimal monolayer formation in overnight culture. On the following day, culture medium was removed, cell monolayers were rinsed three times with PBS, and test compounds were added to the wells in 80 μl aliquots, each diluted into assay medium at a final assay concentration of 10 μM. On day 2 of the assay, medium was removed from each well and replaced with a fresh aliquot of test compounds diluted into assay medium. Assay medium on days 1 and 2 of culture consisted of DMEM:F12 supplemented with 0.5% FCS and 100 ng/ml Activin A. On days 3 and 4 of culture, medium was removed from each well and replaced with DMEM:F12 supplemented with 2% FCS and 100 ng/ml Activin A (no test compound). On day 4 of assay, 15 μl of MTS (Promega) was added to each well and plates were incubated at 37° C. for 1.5 to 4 hours prior to reading optical density at 490 nm on a SpectraMax (Molecular Devices) instrument. Statistical measures consisting of mean, standard deviation, and coefficient of variation were calculated for each duplicate set. Toxicity was calculated for each test well relative to a positive control (wells treated with Activin A and Wnt3a on days 1 and 2 of culture).
A larger proportion of the compounds have minimal or no measurable toxicity in this cell-based assay.
A small panel of select compounds was repeat tested over a narrow dose titration range, again using cells expressing pluripotency markers in a similar assay as described above.

Row | Structure (SMILES) | Average [1] | viability at 10 µM [2] [%] | Raw data (duplicate), first replicate [2] | Raw data (duplicate), second replicate [2] | Average [2] | activity at 10 µM [1] [%] | % Control Value (proliferation) [1] | Raw Data [1] | % Control [2]
1 | O=C1NC(=O)C(c2cccc3c2oc2ccccc23)=C1c1cn(CCCO)c2ncccc12 [Compound 33, 3-Dibenzo[b,d]furan-4-yl-4-[1-(3-hydroxypropyl)-1H-pyrrolo[2,3-b]pyridin-3-yl]-1H-pyrrole-2,5-dione] | 0.1889 | 45.2 | 0.315 | 0.542 | 0.428 | – | – | – | –
2 | O=C1NC(=O)C(c2cccc3c2sc2ccccc23)=C1c1cn(CCCO)c2ncccc12 [Compound 34, 3-Dibenzo[b,d]thien-4-yl-4-[1-(3-hydroxypropyl)-1H-pyrrolo[2,3-b]pyridin-3-yl]-1H-pyrrole-2,5-dione] | 0.1420 | 83.5 | 0.750 | 0.624 | 0.687 | – | – | – | –
3 | COc1ncc(C2=C(c3cn(CCCO)c4ncccc34)C(=O)NC2=O)c(OC)n1 [Compound 48, 3-[2,4-Bis(methyloxy)pyrimidin-5-yl]-4-[1-(3-hydroxypropyl)-1H-pyrrolo[2,3-b]pyridin-3-yl]-1H-pyrrole-2,5-dione] | – | – | – | – | – | 148 | – | – | –
4 | COCCCn1cc(C2=C(c3ccccc3OC)C(=O)NC2=O)c2cnccc21 [Compound 55, 3-[2-(Methyloxy)phenyl]-4-{1-[3-(methyloxy)propyl]-1H-pyrrolo[3,2-c]pyridin-3-yl}-1H-pyrrole-2,5-dione] | 1.1695 | 115 | 0.952 | 0.919 | 0.935 | 152 | – | – | –
5 | COc1ncc(C2=C(c3cn(CCCC#N)c4ncccc34)C(=O)NC2=O)c(OC)n1 [Compound 74, 4-(3-{4-[2,4-Bis(methyloxy)pyrimidin-5-yl]-2,5-dioxo-2,5-dihydro-1H-pyrrol-3-yl}-1H-pyrrolo[2,3-b]pyridin-1-yl)butanenitrile] | – | 78.8 | – | – | – | 130 | – | – | –
6 | O=C1NC(=O)C(c2nn(CCCO)c3ccccc23)=C1c1cn(C2CCOCC2)c2ccccc12 [Compound 78, 3-[1-(3-Hydroxypropyl)-1H-indazol-3-yl]-4-[1-(tetrahydro-2H-pyran-4-yl)-1H-indol-3-yl]-1H-pyrrole-2,5-dione] | 1.0282 | 22 | 0.300 | 0.223 | 0.261 | 154 | – | – | –
7 | Cn1cc(C2=C(c3nn(CC(=O)NCCO)c4ccccc34)C(=O)NC2=O)c2cc(Cl)ccc21 [Compound 82, 2-{3-[4-(5-Chloro-1-methyl-1H-indol-3-yl)-2,5-dioxo-2,5-dihydro-1H-pyrrol-3-yl]-1H-indazol-1-yl}-N-(2-hydroxyethyl)acetamide] | 0.8929 | 95 | 0.684 | 0.809 | 0.746 | 131 | – | – | –
8 | Cn1ccc(C2=C(c3cn(CCCC#N)c4ncccc34)C(=O)NC2=O)n1 [Compound 94, 4-{3-[4-(1-Methyl-1H-pyrazol-3-yl)-2,5-dioxo-2,5-dihydro-1H-pyrrol-3-yl]-1H-pyrrolo[2,3-b]pyridin-1-yl}butanenitrile] | 0.9819 | 95 | 0.810 | 0.683 | 0.746 | 146 | – | – | –
9 | COc1ncc(C2=C(c3cn(CCc4ccccc4)c4ncccc34)C(=O)NC2=O)c(OC)n1 [Compound 98, 3-[2,4-Bis(methyloxy)pyrimidin-5-yl]-4-[1-(2-phenylethyl)-1H-pyrrolo[2,3-b]pyridin-3-yl]-1H-pyrrole-2,5-dione] | 0.6374 | 88.1 | 0.758 | 0.575 | 0.667 | 88 | – | – | –
10 | O=C1NC(=O)C2=C1c1cn(c3ccccc13)CCOCCOCCN(Cc1ccccc1)CCn1cc2c2ccccc21 [Compound 105, 14-(Phenylmethyl)-6,7,9,10,13,14,15,16-octahydro-12H,23H-5,26:17,22-di(metheno)dibenzo[k,q]pyrrolo[3,4-n][1,4,7,10,19]dioxatriacyclohenicosine-23,25(24H)-dione] | 1.2038 | – | 0.916 | 0.859 | 0.887 | – | 183.8% | 1.0968 and 1.3108 | 124.0%
11 | O=C1NC(=O)C2=C1c1cn(c3ccccc13)CCOCCOCCN(Cc1ccco1)CCn1cc2c2ccccc21 [Compound 127, 14-(Furan-2-ylmethyl)-6,7,9,10,13,14,15,16-octahydro-12H,23H-5,26:17,22-di(metheno)dibenzo[k,q]pyrrolo[3,4-n][1,4,7,10,19]dioxatriazacyclohenicosine-23,25(24H)-dione] | 0.9229 and 1.0032 | – | 0.745 and 0.744 | 0.685 and 0.737 | 0.715 and 0.741 | – | 136.8% and 124.4% | 0.9589 and 0.8868 and 1.0442 and 0.9622 | 90.2% and 94.1%
12 | O=C1NC(=O)C2=C1c1cn(c3ccccc13)CCOCCOCCN(Cc1ccncc1)CCn1cc2c2ccccc21 [Compound 139, 14-(Pyridin-4-ylmethyl)-6,7,9,10,13,14,15,16-octahydro-12H,23H-5,26:17,22-di(metheno)dibenzo[k,q]pyrrolo[3,4-n][1,4,7,10,19]dioxatriazacyclohenicosine-23,25(24H)-dione] | 0.8650 | – | 0.532 | 0.682 | 0.607 | – | 115.5% | 0.9184 and 0.8116 | 78.3%
13 | O=C1NC(=O)C(c2cn(CCCO)c3ncccc23)=C1c1cc2ccccc2o1 [Compound 241, 3-(1-Benzofuran-2-yl)-4-[1-(3-hydroxypropyl)-1H-pyrrolo[2,3-b]pyridin-3-yl]-1H-pyrrole-2,5-dione] | – | 85.3 | – | – | – | – | – | – | –

From patent publication US20130337564A1, “Treatment of Pluripotent Cells” (Janssen Biotech, Inc., priority 2012, published 2013)
